Measured values: patent publication US4737505A, “Analgesic 4-substituted indoles” (priority 1984, dated 1988)
Where two headings read alike, the source gives them in different places.

Experiments:
opiate receptor K = molecular target: T1, opiate receptor K (Cavia porcellus, UniProt P41144); test: Bond to the opiate receptor K in vitro (displacement of 3H Ethylketocyclazocin, guinea-pig cerebellum membranes); format: binding; details: for IC50: 3H Ethylketocyclazocin 1 nM, guinea-pig cerebellum membranes, Tris buffer pH 7.7, 25° C., 40 minutes, read-out: 50% inhibiting concentration (IC50); for relative bond affinity (RBA): relative to product U 50 488 H as reference
T1 construct: Membrane residues prepared from guinea-pig cerebellum; from tissue; host or cells: guinea-pig cerebellum membranes
Experimental: (2) Bond to the opiate receptor K in vitro
Membrane residues prepared from guinea-pig cerebellum kept at -30° C. for about 30 days were used and these residues were suspended in Tris buffer pH 7.7. Fractions of 2 ml were distributed into hemolysis tubes, and […] Ethylketocyclazocin 1 nM and the product to be studied were added. The products were first tested to 5×10^-6 M in triplicate. When the products tested displaced more than 50% of the radioactivity specifically linked to the receptor, they were tested again according to a range of 7 doses to determine the dose which inhibited by 50% the radioactivity specifically linked to the receptor. In this way, the 50% inhibiting concentration was determined.
The non-specific bond was determined by the addition of a product known as U 50488 H(ref. Up. John) to 10^-5 M in triplicate. After incubating at 25° C. for 40 minutes, returning to the water-bath at 0° C. for 5 minutes, filtering under reduced pressure, and rinsing in Tris buffer pH 7.7, the radioactivity was counted in the presence of scintillating Trition. The results were expressed: either directly as 50% inhibiting concentration (IC50), that is as a concentration of the product studied, expressed in nM, necessary to displace 50% of the specific radioactivity fixed on the receptor studied, or in relative bond affinity (=RBA) taking the product U 50 488 H as reference [formula]

opiate receptor μ = molecular target: T2, opiate receptor μ (Rattus norvegicus, UniProt P33535); test: Bond to the opiate receptor μ in vitro (displacement of 3H dihydromorphine, rat brain membranes); format: binding, rats; details: for IC50: 3H dihydromorphine 0.7 nM, rat brain membranes, Tris buffer pH 7.7, 25° C., 40 minutes, read-out: 50% inhibiting concentration (IC50); for relative bond affinity (RBA): relative to morphine=100
T2 construct: prepared from brains of rats; from tissue; host or cells: rat brain membranes
Experimental: (1) Bond to the opiate receptor μ in vitro
Membrane residues preserved at -30° C. for about 30 days and prepared from brains of rats were used in this test and these residues were suspended in Tris buffer pH 7.7. Fractions of 2 ml were distributed into hemolysis tubes and ^3 H dihydromorphine 0.7 nM and the product to be studied were added. The products were first of all tested with 5×10^-6 M in triplicate. When the tested products displaced more than 50% of the radioactivity specifically linked to the receptor, they were tested again according to a range of 7 doses to determine the dose which inhibited by 50% the radioactivity specifically linked to the receptor. The 50% inhibiting concentration was thus determined.
The non-specific bond was determined by addition of 10^-5 M morphine in triplicate. After incubating at 25° C. for 40 minutes, returning to the water-bath at 0° C. for 5 minutes, filtering under vacuum, rinsing with Tris buffer pH 7.7, the radioactivity was counted in the presence of scintillating Trition. The results were expressed: either directly as 50% inhibiting concentration (IC50), that is as a concentration of the product studied, expressed in nM, necessary to displace 50% of the specific radioactivity fixed on the receptor studied, or in relative bond affinity (RBA), taking morphine=100 as a reference [formula]

[1] = Analgesic activity, warm plate test; format: in vivo; details: Mus musculus, 1 h, female mice, 56° C. plate, 60 minutes after treatment, read-out: AD100 (dose which increased the reaction time by 100%)
Experimental: Female mice weighing from 22 to 24 g were placed one by one on a copper plate maintained at 56° C. The reaction to pain was shown by the animals licking their front paws and the time of this reaction was noted and was only retained when the mice reacted in less than 8 seconds. The animals were divided into equal groups and were treated with the products to be studied, one group receiving only the vehicle. The time of reaction to pain was again measured 30 to 60 minutes after the treatment and the active dose or AD100 was the dose which increased the reaction time by 100%, 60 minutes after the treatment, taking account of the variations of the reaction time of the control animals.

T1 sequence (P41144 whole entry): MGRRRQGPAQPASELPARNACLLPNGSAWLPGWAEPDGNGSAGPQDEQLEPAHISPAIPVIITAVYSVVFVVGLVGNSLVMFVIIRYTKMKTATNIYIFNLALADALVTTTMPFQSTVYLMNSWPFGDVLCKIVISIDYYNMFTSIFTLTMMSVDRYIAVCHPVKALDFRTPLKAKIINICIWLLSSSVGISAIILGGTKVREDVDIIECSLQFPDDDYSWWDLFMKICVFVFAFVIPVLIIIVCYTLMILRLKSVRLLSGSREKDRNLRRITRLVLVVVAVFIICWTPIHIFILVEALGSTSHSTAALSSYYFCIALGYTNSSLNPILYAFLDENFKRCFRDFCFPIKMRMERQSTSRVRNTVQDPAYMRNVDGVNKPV
T2 sequence (P33535 whole entry): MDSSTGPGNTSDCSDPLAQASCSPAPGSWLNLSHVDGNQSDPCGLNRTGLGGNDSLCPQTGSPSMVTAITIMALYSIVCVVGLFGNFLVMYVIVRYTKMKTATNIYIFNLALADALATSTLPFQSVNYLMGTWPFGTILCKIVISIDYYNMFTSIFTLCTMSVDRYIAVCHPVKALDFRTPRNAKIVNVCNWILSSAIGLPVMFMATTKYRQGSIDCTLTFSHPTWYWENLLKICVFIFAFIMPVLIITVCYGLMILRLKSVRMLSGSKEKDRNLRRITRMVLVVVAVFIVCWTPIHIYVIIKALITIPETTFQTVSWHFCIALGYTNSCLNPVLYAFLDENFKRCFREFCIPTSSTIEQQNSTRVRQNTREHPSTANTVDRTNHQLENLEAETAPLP

| Structure (SMILES) | IC50 (opiate receptor K) [nM] | relative bond affinity (RBA) (opiate receptor K) | IC50 (opiate receptor μ) [nM] | relative bond affinity (RBA) (opiate receptor μ) | ED (100% increase in reaction time) ([1]; central, intracerebral ventricle route) [mg/kg] | ED (100% increase in reaction time) ([1]; oral route) [mg/kg] |
| --- | --- | --- | --- | --- | --- | --- |
| Cl.O=C1Cc2c(cccc2C2=CCN(CCCC(=O)c3ccc(F)cc3)CC2)N1 [Example 32, 1,3-dihydro-4-[1-[(4-fluorophenyl)-4-oxobutyl]-1,2,3,6-tetrahydropyridin-4-yl]-2H-indole-2-one hydrochloride] | 460 | 1.3 | 3.5 | 62 | – | – |
| COC1(c2cccc3[nH]ccc23)CCNCC1 [Example 14, 4-(4-methoxy-4-piperidinyl)-1H-indole] | – | – | 28 | 13 | 0.5 | – |
| C=CCOc1ccccc1OCC(O)CN1CC=C(c2cccc3c2CC(=O)N3)CC1 (centres unmarked) [Example 13, 1,3-dihydro-4-[1-[2-hydroxy-3-[2-(2-propenyloxy)-phenoxy]propyl]-1,2,3,6-tetrahydro-4-pyridinyl]-2H-indol-2-one] | – | – | 1.4 | 270 | – | 20 |
| Cl.O=C1Cc2c(cccc2C2=CCN(CCc3ccccc3)CC2)N1 [Example 26, 1,3-dihydro-4-[1-(2-phenylethyl)-1,2,3,6-tetrahydro-4-pyridinyl]-2H-indole-2-one hydrochloride] | – | – | 59 | 8.2 | – | – |
| C=CCOc1ccccc1OCC(O)CN1CC=C(c2cccc3[nH]ccc23)CC1 (stereo not drawn) [Example 11, 4-(1H-indol-4-yl)-α-[[2-(2-propenyloxy)-phenoxy]-methyl]-1,2,3,6-tetrahydro-1-pyridine ethanol] | – | – | 9.43 | 22.43 | – | – |
| CCCN1CC=C(c2cccc3[nH]ccc23)CC1 [Example 7, 4-(1-propyl-1,2,3,6-tetrahydropyridin-4-yl)-1H-indole] | 182 | 1.4 | – | – | – | – |
| Cl.O=C1Cc2c(cccc2C2=CCN(CCOc3ccccc3)CC2)N1 [Example 29, 1,3-dihydro-4-[1-(2-phenoxyethyl)-1,2,3,6-tetrahydro-4-pyridinyl]-2H-indol-2-one hydrochloride] | 152 | 1.1 | 11 | 23 | – | – |
